These results are taken from patent publication US20070148283A1, “Compositions providing a sensation substantially similar to that provided by menthol” (Cadbury Adams USA LLC, priority 2005, published 2007).

A value given as a limit tells only on which side of the number the result lay.

One experiment is described as follows: Amount in a composition achieving the characteristic cooling effect of menthol. The format is in vivo. Particulars: amount present in a composition; equivalent amounts relative to menthol. An excerpt: For purposes of achieving the characteristic “cooling effect” of menthol, an equivalent amount of another compound sufficient to impart the characteristic “cooling effect” of menthol is about 50 ppm, preferably about 100 ppm or even 200 or 300 ppm of menthyl lactate, about 20 ppm, preferably about 40 ppm or even 50 or 75 ppm of monomenthyl succinate, and about 0.01 ppm, preferably about 0. 1 ppm or even 0.3 or 0.5 ppm of isopulegol. Using these relative conversions, one of ordinary skill in the art may readily substitute one or more compounds to achieve the relative “cooling effect” of menthol.
On to `C=C(C)[C@@H]1CC[C@@H](C)C[C@H]1O` [isopulegol], for which the “amount sufficient to impart the characteristic cooling effect of menthol” value is listed as “about 0.01 ppm”.
Consider `CC1CCC(C(C)C)C(O)C1` (stereo not drawn) [menthol], for which the “amount sufficient to impart the characteristic cooling effect of menthol” value is recorded as at least 25 ppm.
In the case of `CC1CCC(C(C)C)C(OC(=O)C(C)O)C1` (stereo not drawn) [menthyl lactate], the “amount sufficient to impart the characteristic cooling effect of menthol” value is recorded as “about 50 ppm”.
Same read-out and setting: next, `CC(C)[C@@H]1CC[C@@H](C)C[C@H]1OC(=O)CCC(=O)O` [monomenthyl succinate]: “about 20 ppm”.

The next experiment is described as follows: Amount in a composition achieving the characteristic nasal action of menthol. It counts as in vivo. Particulars: amount present in a composition; equivalent amounts relative to menthol. An excerpt: For purposes of achieving the characteristic “nasal action” of menthol, an equivalent amount of another compound sufficient to impart the characteristic “nasal action” of menthol is about 0.5 ppm, preferably about 1 ppm or even 2 or 3 ppm of methone, about 0.5 ppm, preferably about 1 ppm or even 2 or 3 ppm of isomethone, about 0.1 ppm, preferably about 0.2 ppm or even 0.3 or 0.5 ppm of eucalyptol, and about 10 ppm, preferably about 20 ppm or even 30 or 50 ppm of camphor. Using these relative conversions, one of ordinary skill in the art may readily substitute one or more compounds to achieve the relative “nasal action” of menthol.
In the case of `CC12CCC(CC1=O)C2(C)C` (stereo not drawn) [camphor], the “amount sufficient to impart the characteristic nasal action of menthol” value was “about 10 ppm”.
Take `CC12CCC(CC1)C(C)(C)O2` [eucalyptol]: the “amount sufficient to impart the characteristic nasal action of menthol” value was “about 0.1 ppm”.
Same read-out and setting: next, `CC(C)[C@@H]1CC[C@H](C)CC1=O` [isomethone, isomenthone]: “about 0.5 ppm”.
The same measure, in the same setting: next, `CC1CCC(C(C)C)C(O)C1` (stereo not drawn) [menthol]: at least 3 ppm; `CC(C)[C@@H]1CC[C@@H](C)CC1=O` [methone, menthone]: “about 0.5 ppm”.
